We go through twelve compounds from EP4670717A1, “PYRROLIDINE-FUSED MYRTANOL DERIVATIVES AS INHIBITORS AND/OR DEGRADERS OF IDO1 UND USE THEREOF” (Max-Planck-Gesellschaft zur Förderung der Wissenschaften …, priority 2024, dated 2025).

The target in test [1] is T1, recombinant human IDO1 (rhIDO1) (Homo sapiens, UniProt P14902).
T1 construct: Full-length rhIDO protein (1 µM) in 50 mM potassium phosphate buffer; GST (cleaved yes); made in house; host or cells: E. coli
The test can be described thus: IDO1 enzymatic assay with recombinant protein, Kyn detection with p-DMAB. The format is biochemical. Particulars: pre-incubated with compounds at 37°C for 40 min; for IC50: determined if inhibition at 59 µM was higher than 50%, read-out: rhIDO1 enzymatic activity IC50 ± SD. From the text:
Reduction of the kynurenine level in the cell-based model employed for initial SAR exploration can be due to inhibition of enzymatic activity, degradation of IDO1, or both (Table B-2). In order to differentiate between these different activities, we explored the modes of action of selected compounds in an in vitro assay employing recombinant human IDO1 (rhIDO1) monitoring enzymatic activity only, and we characterized the degradation efficiency by means of Western blotting, determining maximum degradation levels at 0.1µM (Dmax) and half maximum degradation concentration (DC50) (Table B-2). Table B-2 in vitro inhibition and degradation of IDO1 by selected compounds. […] Data are mean values ± SD (n = 4, except for compounds 1, 11, and 19 (n=2)). […] Data are mean values of n biological replicates. Dmax corresponds to maximum levels of IDO1 degradation at 0.1 µM.
Full-length rhIDO protein (1 µM) in 50 mM potassium phosphate buffer (50 mM KH2PO4 and 50 mM K2HPO4, pH 6.5) was incubated with the respective compounds for 40 min at 37 °C prior to the addition of 10 mM ascorbic acid, 10 µM methylene blue, 2 mM Trp and 100 µg/mL catalase (Sigma-Aldrich, C100). Samples were incubated for 60 min followed by the addition of trichloroacetic acid to a final concentration of 7 % and further incubation for 30 min at 37 °C. Kyn levels were detected by the addition of an equal volume of 2 % (w/v) p-DMAB in acetic acid and absorbance was measured at 492 nm and 650 nm as a background control. Values are presented relative to the DMSO control. Dose-response curves and IC50 values were generated and fitted with GraphPad Prism 6.0 (GraphPad software, USA) using four-parameter variable slope non-linear regression curve fit.

In test [2] the target is T2, IDO1 (Homo sapiens, UniProt P14902).
T2 construct: BxPC3 cells were seeded in phenol red-free RPMI 1640 medium; endogenous in cells; host or cells: BxPC3 cells stimulated with IFN-γ (50 ng/mL)
T2 sequence (P14902 whole entry): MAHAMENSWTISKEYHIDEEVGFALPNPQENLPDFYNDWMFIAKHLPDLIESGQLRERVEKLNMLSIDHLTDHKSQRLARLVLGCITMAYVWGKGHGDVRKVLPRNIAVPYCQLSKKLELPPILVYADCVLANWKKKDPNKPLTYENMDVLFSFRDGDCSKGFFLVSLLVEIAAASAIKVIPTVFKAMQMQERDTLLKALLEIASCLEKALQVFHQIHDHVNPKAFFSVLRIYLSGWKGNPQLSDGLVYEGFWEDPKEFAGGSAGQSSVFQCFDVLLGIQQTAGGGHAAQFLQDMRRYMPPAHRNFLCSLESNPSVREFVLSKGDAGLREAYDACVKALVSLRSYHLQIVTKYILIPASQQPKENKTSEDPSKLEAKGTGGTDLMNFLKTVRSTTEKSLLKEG
The test is described as follows: IDO1 degradation in BxPC3 cells, IDO1 protein levels by immunoblotting.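 On all read-outs here: IDO1 bands on Western blots detected with fluorescent dye-labelled secondary antibodies and quantified by band intensity, values are means of n biological replicates.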 It counts as cell-based. Particulars: for Dmax at 0.1 µM: BXPC-3, BxPC3 cells; for Dmax at 0.1 µM / Dmax [%] (n): 50 ng/ml IFN-γ 24 h, washout, compound (100 nM) 24 h, maximum IDO1 degradation at 0.1 µM.
Description: To analyze IDO1 levels, IFN-γ-stimulated BxPC3 cells (50 ng/mL IFN-γ), U2OS cells (5 ng/mL IFN-γ), HEK^rhIDO1 (HEK293T cells electroporated with rhIDO1), SKOV3 and BT549 cells were treated with compounds for the indicated times (6 h to 24 h) followed by cell lysis (150 mM sodium chloride in 50 mM Tris (pH 8.0) and 1% NP-40 Alternative, protease and phosphatase inhibitors). Protein concentrations were determined (DC protein assay, Bio-Rad) followed by addition of 1 × SDS loading buffer and protein separation by a 10% SDS-PAGE. Separated protein samples were transferred to a polyvinylidene difluoride (PVDF) membrane using a wet-tank blotting system (Bio-Rad). IDO1 as well as vinculin as a loading were detected using the primary antibodies anti-IDO1 (ab211017, abcam or 14-9750-80, Thermo Fisher), anti-vinculin (V9131, Thermo Fisher) and anti-β-actin (ab8227, abcam) in 5 % milk in PBS-buffered saline with 0.05 % (v/v) Tween-20 (PBS-T). Primary antibodies were incubated at 4°C overnight and detected with IRDye-conjugated secondary antibodies (LI-COR Biosciences). IDO1 protein level in BT549 and SKOV3 cells was detected with HRP conjugated secondary antibody and SuperSignal™ West Dura Extended Duration Substrat (Thermo Fisher Scientific). Washing steps were performed with PBS-T. Protein bands were visualized by ChemiDoc™ MP (Bio-Rad) using a fluorescent readout. Band intensities were quantified using Image Lab software.
In order to differentiate between these different activities, we explored the modes of action of selected compounds in an in vitro assay employing recombinant human IDO1 (rhIDO1) monitoring enzymatic activity only, and we characterized the degradation efficiency by means of Western blotting, determining maximum degradation levels at 0.1µM (Dmax) and half maximum degradation concentration (DC50) (Table B-2). […] Data are mean values of n biological replicates. Dmax corresponds to maximum levels of IDO1 degradation at 0.1 µM.

Test [3] has as its target T2, IDO1. The test is described as follows: Kyn assay in BxPC-3 cells (Kyn levels after IFN-γ and Trp).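 On all read-outs here: kyn levels expressed relative to DMSO-treated control cells.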 Particulars: for activity in the cell-based kynurenine assay: result in words. The format is cell-based.
Description: BxPC3 cells were seeded in phenol red-free RPMI 1640 medium in 1536-well or 384-well plates (Greiner #782086, Corning #3770) 24 h prior to the addition of compounds, IFN-γ (50 ng/mL, PeproTech) and L-Trp (380 µM, Sigmal-Aldrich). After 48 h of incubation, first cell viability was accessed by the addition of Hoechst-33342. Afterwards, trichloroacetic acid (TCA, Sigma-Aldrich) was added to a final concentration of 7 % and incubated for 10 min prior to a centrifugation step of 10 min at 1620 × g. Kyn levels were determined by means of the Kyn sensor^7 at a final concentration of 17.5 µM in sensor buffer (50 mM H3PO4 and 120 mM NaCl (pH=1)). Fluorescence intensity (excitation: 535 nm, emission: 595 nm) was measured using a Spectramax Paradigm reader (Molecular Devices). Data were normalized to the values for cells that were treated with DMSO.
For the manual assay, BxPC3 or SKOV3 cells were seeded in clear 96-well or 384-well plates, respectively, 24 h prior to compound treatment and IFN-γ (50 or 5 ng/mL, respectively) and L-Trp (380 µM) addition as described before.^7 48 h after treatment, TCA was added and Kyn levels were detected by means of 2 % w/v of p-DMAB (Ehrlich reagent) in acetic acid as described by Braun et al^29. The absorbance of the Ehrlich reagent was detected at 492 nm and at 650 nm as background control was measured on Spark® multimode microplate plate reader (Tecan, Austria). Kyn levels were determined by subtracting the absorbance value at 650 nm and presented relative to the DMSO control. Dose-response curves and IC50 values were generated and fitted with GraphPad Prism 6.0 (GraphPad software, USA) using four-parameter variable slope non-linear regression curve fit.
Cells were incubated with IFN-γ, Trp and the compounds for 48 h prior to detection of Kyn levels.
Another test deals with T3, apo-IDO1 (Homo sapiens, UniProt P14902).
T3 construct: For the ubiquitination assays, IDO1 (residues 5-C) was cloned into a pRSF Duet based vector; His-TEV (N); made in house; host or cells: IDO1: host not restated ('purified as described above', which points to E. coli); KLHDC3-EloB/C: Hi5 insect cells
T3 sequence (P14902 5-403 limits assumed): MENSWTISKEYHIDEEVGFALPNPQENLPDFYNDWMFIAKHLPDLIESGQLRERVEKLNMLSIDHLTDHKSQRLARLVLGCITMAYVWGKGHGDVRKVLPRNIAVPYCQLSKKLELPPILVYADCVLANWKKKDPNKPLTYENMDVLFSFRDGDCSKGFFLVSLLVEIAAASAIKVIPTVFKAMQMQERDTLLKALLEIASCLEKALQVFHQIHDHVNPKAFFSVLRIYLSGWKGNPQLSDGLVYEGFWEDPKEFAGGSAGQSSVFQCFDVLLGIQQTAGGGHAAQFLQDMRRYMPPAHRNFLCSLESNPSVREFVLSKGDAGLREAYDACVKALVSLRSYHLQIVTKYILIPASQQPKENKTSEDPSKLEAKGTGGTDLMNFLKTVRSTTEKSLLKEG
The test is described as follows: Pulse-chase ubiquitination assay of apo-IDO1 by CRL2^KLHDC3. It counts as biochemical. Particulars: apo-IDO1 incubated with compounds (30 µM) for 90 min at 37°C; Fig. 3j.

[4] abbreviates: BxPC-3 cells incubated with IFN-γ, Trp and the compounds for 48 h, read-out: Kyn assay IC50 ± SD.

Entries after “also recorded” stand apart in the source; their conditions may differ. Where two headings read alike, the source gives them in different places.

T1 sequence (P14902 whole entry): as the sequence (P14902 whole entry) above

On to `C#Cc1ccc(NC(=O)OC[C@]23CN(S(=O)(=O)c4ccc(C(C)(C)C)cc4)C[C@H]2C[C@H]2C[C@@H]3C2(C)C)cc1` [compound 19], for which the inhibition – broadly, the change of the read-out against control, counted positive when it falls – at 59 µM in test [1] (in vitro inhibition at 59 uM) was 49 ± 0.6%. Moreover, the Dmax (commonly the largest share of the target that was removed) at 0.1 µM at IDO1 [2] was > 60%. In addition, the “Dmax [%] (n)” value on IDO1 [2] (BxPC3 cells) is listed as 62 ± 10 (5) %. The IC50 (commonly the midpoint of a concentration-inhibition curve) at IDO1 [3] (setting [4]) is < 200 nM. In addition, the “activity in the cell-based kynurenine assay” value on IDO1 [3] is given as “low nanomolar range”.

On to `CC(C)(C)c1ccc(S(=O)(=O)N2C[C@H]3C[C@H]4C[C@H](C4(C)C)[C@@]3(COC(=O)Nc3ccc(I)cc3)C2)c(C2CC2)c1` [compound 54, ((3aS,4R,6R,7aS)-2-((4-(tert-butyl)-2-cyclopropylphenyl)sulfonyl)-5,5-dimethyl-octahydro-3aH-4,6-methanoisoindol-3a-yl)methyl (4-iodophenyl)carbamate], for which the inhibition at 59 µM in test [1] (in vitro inhibition at 59 uM) stood at 35 ± 2%. The same compound yielded a Dmax at 0.1 µM at IDO1 [2] of 55 to 59%. The “Dmax [%] (n)” value at IDO1 [2] (BxPC3 cells) is 55 ± 4 (3) %. The IC50 on IDO1 [3] (setting [4]) was < 200 nM.

As for `CC(C)(C)c1ccc(S(=O)(=O)N2C[C@H]3C[C@H]4C[C@H](C4(C)C)[C@@]3(COC(=O)Nc3ccc(I)cc3)C2)cc1` [compound 11, ((3aS,4R,6R,7aS)-2-((4-(tert-butyl)phenyl)sulfonyl)-5,5-dimethyloctahydro-3aH-4,6-methanoisoindol-3a-yl)methyl (4-iodophenyl)carbamate], in test [1] (in vitro inhibition at 59 uM), the “rhIDO1 enzymatic activity Inhibition [%]” value was “not active; also recorded: inactive”. At IDO1 [2], this compound gave a Dmax at 0.1 µM of 37%. The IC50 on IDO1 [3] (setting [4]) was < 200 nM. Moreover, the “fold more potent in the Kyn assay than compound 1” value on IDO1 [3] (relative to compound 1) is recorded as 7 fold. The “activity in the cell-based kynurenine assay” value at IDO1 [3] was “low nanomolar range”.

On to `CC(C)(C)c1ccc(S(=O)(=O)N2C[C@H]3C[C@H]4C[C@H](C4(C)C)[C@@]3(COC(=O)Nc3ccc(I)cc3)C2)c(Br)c1` [compound 56, ((3aS,4R,6R,7aS)-2-((2-bromo-4-(tert-butyl)phenyl)sulfonyl)-5,5-dimethyloctahydro-3aH-4,6-methanoisoindol-3a-yl)methyl (4-iodophenyl)carbamate], for which the inhibition at 59 µM in test [1] (in vitro inhibition at 59 uM) is 12 ± 7%. On IDO1 [2], this compound registered a Dmax at 0.1 µM of 55 to 59%. Moreover, the “Dmax [%] (n)” value at IDO1 [2] (BxPC3 cells) was 56 ± 4 (3) %. In addition, the IC50 on IDO1 [3] (setting [4]) is < 200 nM.

On to `CC(C)(CC(=O)O)c1ccc(S(=O)(=O)N2C[C@H]3C[C@H]4C[C@H](C4(C)C)[C@@]3(COC(=O)Nc3ccc(I)cc3)C2)cc1` [compound 63, 3-(4-(((3aS,4R,6R,7aS)-3a-((((4-iodophenyl)carbamoyl)oxy)methyl)-5,5-dimethyloctahydro-2H-4,6-methanoisoindol-2-yl)sulfonyl)phenyl)-3-methylbutanoic acid], for which the inhibition at 59 µM in test [1] (in vitro inhibition at 59 uM) came to 67 ± 6%. Moreover, the IC50 in test [1] was 1900 ± 500 nM; at IDO1 [3] (setting [4]) it was < 200 nM. The Dmax at 0.1 µM at IDO1 [2] is 36 to 46%. For the same compound, the “Dmax [%] (n)” value on IDO1 [2] (BxPC3 cells) is 36 ± 2 (3) %.

Take `C#Cc1ccc(NC(=O)OC[C@]23CN(S(=O)(=O)c4ccc(C(C)(C)C)cc4CC)C[C@H]2C[C@H]2C[C@@H]3C2(C)C)cc1` [compound 72, ((3aS,4R,6R,7aS)-2-((4-(tert-butyl)-2-ethylphenyl)sulfonyl)-5,5-dimethylocta-hydro-3aH-4,6-methanoisoindol-3a-yl)methyl(4-ethynylphenyl) carbamate]: the inhibition at 59 µM in test [1] (in vitro inhibition at 59 uM) was determined as 62 ± 5%. For the same compound, the “Dmax [%] (n)” value on IDO1 [2] (BxPC3 cells) is 75%. At IDO1 [2] (half-maximal degradation concentration, BxPC3 cells, immunoblotting), the “DC50 ± SD [nM]” value is “low nanomolar range”. In addition, the IC50 at IDO1 [3] (read-out: IC50 value in the Kyn assay, Kyn assay) was 11 nM; on IDO1 [3] (read-out: Kyn assay IC50 ± SD, BxPC-3 cells incubated with IFN-γ, Trp and the compounds for 48 h), < 200 nM.

Take `C#Cc1ccc(NC(=O)OC[C@]23CN(S(=O)(=O)c4ccc(C(C)(C)C(=O)O)cc4)C[C@H]2C[C@H]2C[C@@H]3C2(C)C)cc1` [compound 74, 2-(4-(((3aS,4R,6R,7aS)-3a-((((4-ethynylphenyl)carbamoyl)oxy)methyl)-5,5-dimethyloctahydro-2H-4,6-methanoisoindol-2-yl)sulfonyl)phenyl)-2-methylpropanoic acid]: the inhibition at 59 µM in test [1] (in vitro inhibition at 59 uM) came to 78 ± 3%. The figures for the IC50 (in test [1]; at IDO1 [3] (setting [4])) were 310 ± 60 nM and < 200 nM, respectively. The compound further gave a Dmax at 0.1 µM on IDO1 [2] of 54 ± 8%. The “activity in the cell-based kynurenine assay” value at IDO1 [3] is recorded as “low nanomolar range”.

In the case of `CC(C)(C(=O)O)c1ccc(S(=O)(=O)N2C[C@H]3C[C@H]4C[C@H](C4(C)C)[C@@]3(COC(=O)Nc3ccc(I)cc3)C2)c(Cl)c1` [compound 69, 2-(3-chloro-4-(((3aS,4R,6R,7aS)-3a-((((4-iodophenyl)carbamoyl)oxy)methyl)-5,5-dimethyloctahydro-2H-4,6-methanoisoindol-2-yl)sulfonyl)phenyl)-2-methylpropanoic acid], in test [1] (in vitro inhibition at 59 uM), the inhibition at 59 µM came out at 55 ± 2%. For the same compound, the IC50 is 270 ± 20 nM in test [1] and < 200 nM at IDO1 [3] (setting [4]). Moreover, at IDO1 [2], the Dmax at 0.1 µM turned out to be 20 ± 12%.

For `Cc1cc(C(C)(C)C)ccc1S(=O)(=O)N1C[C@H]2C[C@H]3C[C@H](C3(C)C)[C@@]2(COC(=O)Nc2ccc(I)cc2)C1` [compound 52, ((3aS,4R,6R,7aS)-2-((4-(tert-butyl)-2-methylphenyl)sulfonyl)-5,5-dimethyloctahydro-3aH-4,6-methanoisoindol-3a-yl)methyl (4-iodophenyl)carbamate], in test [1] (in vitro inhibition at 59 uM), the inhibition at 59 µM was determined as 48 ± 6%. At IDO1 [2], the Dmax at 0.1 µM was > 60%. Also, the “Dmax [%] (n)” value on IDO1 [2] (BxPC3 cells) is 65 ± 10(14) %. The IC50 on IDO1 [3] (setting [4]) is < 200 nM. In addition, the “activity in the cell-based kynurenine assay” value on IDO1 [3] is given as “low nanomolar range”.

Take `C#Cc1ccc(NC(=O)OC[C@]23CN(S(=O)(=O)c4ccc(C(C)(C)C)cc4C)C[C@H]2C[C@H]2C[C@@H]3C2(C)C)cc1` [compound 71, ((3aS,4R,6R,7aS)-2-((4-(tert-butyl)-2-methylphenyl)sulfonyl)-5,5-dimethylocta-hydro-3aH-4,6-methanoisoindol-3a-yl)methyl (4-ethynylphenyl)carbamate]: the “IDO1 ubiquitination by CRL2^KLHDC3” value at apo-IDO1 is reported as “ubiquitinated”. Besides, the inhibition at 59 µM in test [1] (in vitro inhibition at 59 uM) came to 30 ± 5%. The same compound came in with a Dmax at 0.1 µM at IDO1 [2] of 74 ± 13%.

In the case of `CCc1cc(C(C)(C)C)ccc1S(=O)(=O)N1C[C@H]2C[C@H]3C[C@H](C3(C)C)[C@@]2(COC(=O)Nc2ccc(I)cc2)C1` [compound 53, ((3aS,4R,6R,7aS)-2-((4-(tert-butyl)-2-ethylphenyl)sulfonyl)-5,5-dimethyloctahydro-3aH-4,6-methanoisoindol-3a-yl)methyl (4-iodophenyl)carbamate], the inhibition at 59 µM in test [1] (in vitro inhibition at 59 uM) amounted to 37 ± 9%. On IDO1 [2], this compound came in with a Dmax at 0.1 µM of 55 to 59%. In addition, on IDO1 [2] (BxPC3 cells), the “Dmax [%] (n)” value is recorded as 56 ± 4 (3) %. Moreover, the IC50 at IDO1 [3] (setting [4]) is < 200 nM.

`Cc1cc(C(C)(C)C(=O)O)ccc1S(=O)(=O)N1C[C@H]2C[C@H]3C[C@H](C3(C)C)[C@@]2(COC(=O)Nc2ccc(I)cc2)C1` [compound 70, 2-(4-(((3aS,4R,6R,7aS)-3a-((((4-iodophenyl)carbamoyl)oxy)methyl)-5,5-dimethyloctahydro-2H-4,6-methanoisoindol-2-yl)sulfonyl)-3-methylphenyl)-2-methylpropanoic acid]: the inhibition at 59 µM in test [1] (in vitro inhibition at 59 uM) was 62 ± 1%. The IC50 in test [1] was 110 ± 20 nM; on IDO1 [3] (setting [4]) it was < 200 nM. On IDO1 [2], this compound had a Dmax at 0.1 µM of 18 ± 19%.
